Tests used:
[1] = test system: AdipoR1/2 mRNA expression; assay: qRT-PCR of AdipoR1/2 mRNA in Raw264.7 cells; format: cell-based; details: 24 h
Description: FIG. 10 Raw264.7 cells were treated with different doses of AdipoAI for 24 h to measure AdipoR1/2 mRNA expression by qRT-PCR. Data were expressed as the mean±SEM at five biological independent experiments. One-way ANOVA test for multiple-group comparisons, * vs. control group. *P<0.05, significant differences between each indicated group.
Total RNA of cells was extracted using Quick-RNA Miniprep Kit (ZYMO Research, Irvine, CA, USA) and total RNA from mouse tissues was prepared with TriZol reagent (Life Technologies) according to the manufacturer's instructions followed by qRT-PCR assays as described previously (L. Zhang et al., 2014). 1 μg of total RNA was used for reverse transcription using the M-MLV Reverse Transcriptase (Thermo Scientific, Waltham, MA, USA) according to the manufacturer's protocol using PowerUp SYBR Green Master Mix (Thermo Scientific) on a Bio-Rad iQ5 thermal cycler (Bio-Rad Laboratories, Hercules, CA, USA). Differences in expression were evaluated by the comparative cycle threshold method using GAPDH or β-actin as a control. The primer sequences used for the qRT-PCR experiments are listed in supplemental Table 1.

[2] = test system: mice with LPS-induced endotoxemia; assay: LPS-induced endotoxemia in WT mice; format: in vivo, C57BL/6 mice
Description: FIG. 4 AdipoAI protects against LPS-induced endotoxemia. Endotoxemia was induced in WT mice by intraperitoneal injection with LPS ([…]), and control littermates were administered with equivalent volumes of PBS. APR or AdipoAI were orally gavaged into mice for 24 hours before LPS challenge and control animals were administered with equivalent volumes of DMSO. (a) mRNA expression levels of pro-inflammatory cytokines in lung, spleen, liver and WAT were measured by qRT-PCR and normalized with GAPDH mRNA levels. Data are shown as mean±SEM (n=6). (b) Survival curve of mice with endotoxemia (n=12). (c) Serum levels of IL-6 and IL-1β were measured by ELISA. Data are expressed as mean±SEM (n=6). (d) Histopathology for lung, spleen, liver and WAT tissues isolated from APR- or AdipoAI-treated mice 24 h before LPS challenge (n=6). Upper panel: Hematoxylin and cosin staining; Lower panel: Immunohistochemical staining for macrophage marker F4/80. Red arrow indicates F4/80 positive cells. One-way ANOVA test for multiple-group comparisons, * vs. DMSO+PBS group, # vs. DMSO+LPS group. */#P<0.05, significant differences between each indicated group. ns, not significant.
The Ethics Committee on the Use and Care of Animals at Tufts University approved the study protocol (Boston, MA, USA). The animals received humane care according to the criteria outlined in the Guide for the Care and Use of Laboratory Animals prepared by the National Academy of Sciences and published by the National Institutes of Health. All experiments involving animals or animal tissue are reported in compliance with the guidelines of ARRIVE and BJP (Kilkenny et al., 2010; McGrath and Lilley, 2015). Experimental protocols and design adhere to BJP guidelines (Curtis et al., 2015). Wild-type (WT, C57BL/6J, Jax #000664), DIO (Jax #380050), and APN KO (Jax #008195) mice were purchased from the Jackson Laboratory. The DIO mice were fed with a high-fat diet (containing 60% kcal from fat; Jackson Laboratory) at 6 weeks of age and later. The WT mice were fed with ordinary diet as normal chow (NC)-fed mice, and APN KO mice were maintained and fed with an NC diet as previously described (Tu et al., 2011). For the LPS-induced endotoxemia model, male C57BL/6 mice aged 8 weeks received oral gavage with APR (50 mg/kg body weight) or AdipoAI (25 mg/kg body weight) for 24 h before by LPS (20 mg/kg body weight) treatment which was administered intraperitoneally whereas control animals were treated with equivalent volumes of normal PBS. Mouse survival in each group was monitored and recorded up to 84 h. All mice were killed at 1 h for detection of activation of inflammatory genes, at 6 h for determination of inflammatory factors in serum, and at 24 h for histological evaluation. Animal data were excluded from experiments based on pre-established criteria of visible abnormal tissue structure during sample harvest or other health issues, including fighting wounds.

LPS-induced BMMs = assay: ELISA of IL-6 and IL-1β in supernatants of LPS-induced BMMs; format: cell-based, C57BL/6J mice; details: AdipoAI 5 μM 24 h then LPS 6 h
Description: FIG. 2 AdipoAI suppresses LPS-stimulated inflammatory responses in macrophages. (a) Raw264.7 cells or (b) BMMs were pretreated with APR (20 μM) or AdipoAI (5 μM) for 24 h followed by incubation with LPS (100 ng/mL) for additional 6 h for the measurement of IL-6 and IL-1β in supernatants by ELISA. Data were expressed as the mean±SEM at five biological independent experiments. One-way ANOVA test for multiple-group comparisons, * vs. LPS group, *P<0.05, significant differences between each indicated group. (c) PEMs were isolated from C57BL/6J mice (n=5 mice/group) were injected i.p. with ImL 4% thioglycolate solution or AdipoAI (25 mg/kg) for the measurement of IL-6 and IL-1β. The amounts of IL-6 and IL-1β in supernatant were measured by ELISA. Data were expressed as the mean±SEM (n=5). Two-tailed Student's t-test for two groups, *P<0.05, significant differences between each indicated group. (d-f) Impact of AdipoAI on basal (d) and LPS-induced expression of an array of proinflammatory cytokines, chemokines, and receptors (e,f) in Raw264.7 cells (4 groups and 3 biological replicates/group). Data analyses were performed according to the manufacturer's instructions with their web-based software package (www.qiagen.com/us/shop/genes-and-pathways/data-analysis-center overview-page/). […]

Description for RAW 264.7 cells: RAW 264.7 cells were treated with receptor activator of nuclear factor KB ligand (RANKL) (100 ng/ml) for 2 days with or without AdipoRon (20 μM) or AdipoAI (5 μM) for another 2 days. […] (C) The CCK-8 analysis of RAW 264.7 cells treated with 20 μM AdipoRon or 5 μM AdipoAI for 48 h. (D) The CCK-8 analysis of RAW 264.7 cells' proliferation at different doses of APR and AdipoAI. Cells were treated with 100 ng/ml RANKL for 2 days with or without AdipoRon (5, 20 μM) or AdipoAI (5, 20 μM) every 2 days for 4 days. […] Data are shown as mean±SD., compared with the vehicle-treated group, *P<0.05. **P<0.01. ***P<0.001.
RAW 264.7 cells (2×10^3 cells/well) were seeded in 96-well plates and treated with or without AdipoRon or AdipoAI for 48 hours in a humidified chamber at 37° C. in 5% CO2 and air. Cell viability was determined with the Cell Counting Kit-8 (CCK-8 kit, Dojindo, Santa Clara, CA, USA) following the manufacturer's recommendations. Briefly, CCK-8 solution (10 μL) was added to each well and cells were incubated in dark for 3 hours. Cell viability was determined by measuring the absorbance at 450 nm.

## COc1ccc(CN2CCC(NC(=O)COc3ccc(C(=O)c4ccc(Cl)cc4)cc3)CC2)cc1 [Compound 3]
RAW 264.7 cells
  number of RAW 264.7 cells (CCK-8) at 20 μM: reduced cell number
RAW 264.7 cells; mouse, 48 h, 5 μM
  number of RAW 264.7 cells (CCK-8) at 5 μM: did not reduce the number of RAW 264.7 cells
[1]
  mRNA levels of AdipoRs: increased the mRNA levels of AdipoRs
[2]; 6 h post-LPS administration
  serum levels of IL-6 and IL-1β: reduced serum levels of pro-inflammatory cytokines IL-6 and IL-1β
[2]; 24 h, LPS-challenged mice
  lung histopathology: fewer lung lesions and decreased inflammatory cell infiltration
[2]; 84 h post-LPS challenge, vehicle 12.5%
  survival rate: 40%
[2]; LPS-challenged mice
  LPS-induced spleen, liver and WAT injury and inflammatory responses: alleviated
[2]; LPS-challenged mice, qPCR and IHC
  c-Maf mRNA and protein levels in lung, spleen, liver and WAT: decreased
[2]; LPS-induced endotoxemia mice (sentence also covers DIO mice)
  expression of TNF-α in tissues: did not inhibit the expression of TNF-α
[2]; oral gavage 24 h before LPS challenge
  mRNA levels of proinflammatory genes in lung, spleen, WAT, liver: decreased mRNA levels of proinflammatory genes
LPS-induced BMMs
  IL-6 and IL-1β protein levels (ELISA): decreased IL-6 and IL-1β protein levels

Reference: patent US12391646B2, “Using adiponectin receptor agonists to treat inflammation and bone diseases in diabetes” (Trustees of Tufts College, priority 2020, dated 2025)
